Measured values published in a melting point compilation (Tetko et al.; mined from patent text by program, amines drawn as free bases though some values may be those of a salt).

melting point [°C] | SMILES
116 to 119 | COc1cccc(C)c1N(C(C)=O)C(C)=O
74 | COC(=O)c1cc(OC)c(Cl)c(C)c1Cl
95 to 96 | CCOC(=O)C1CCc2[nH]c3ccccc3c2C1 (configuration not stated)
116 to 118 | COc1ccc2cc(-c3nccn3C)ccc2n1
251 to 252 | ON=C1CCn2c(-c3ccccc3)nc3c(Cl)ccc1c32
100 to 101 | CCCCCCCCCCCCCCCCS(=O)(=O)N[C@H]1CCCNC(=O)C1
64 to 65 | CCOc1c(C2=C(C(C)(C)C)C(C)(C)CO2)sc2ccc(O[Si](C)(C)C(C)(C)C)cc12
118 to 120 | Clc1cc(Nc2cc(C3CC3)n[nH]2)nc(Sc2ccc3ccccc3c2)n1
64 to 64.5 | COC(=O)c1cccc([N+](=O)[O-])c1I
210 to 211 | Cc1cc(-c2nc3cc(NC(=O)c4c(C(=O)N5CCC5)cnn4C)ccn3n2)ccn1
87 to 88 | Cc1oc(-c2ccccc2)nc1COc1ccc(COc2nn(Cc3ccccc3)cc2CC(=O)O)cn1
160 to 162 | CCOC(=O)C(N=Nc1ccc(Br)cc1C(=O)c1ccccn1)NC(=O)CCl (configuration not stated)
164 to 165 | CC(C)(C)CC(=O)Nc1ccc2oc3c(c2c1)CCCC3
207 to 215 | O=C(Nc1ccccc1C(=O)NCCc1ncc[nH]1)c1ccc(C(F)(F)F)cc1
79 to 80 | CCOC(=O)C(C)ON1CCNC1=Nc1c(Cl)cccc1Cl (configuration not stated)
201 to 202 | COC(=O)c1ccc(NN=CC(F)(F)F)cc1S(=O)(=O)NC(=O)Nc1nc(OC)cc(OC)n1
208 to 209 | Cn1cncc1-c1cccc(Nc2nccc3ccccc23)c1
224 to 227 | N#Cc1ccnc(OCc2nc3cc(Cl)ccc3s2)c1
257 to 259 | O=C(O)Cc1c(Cl)cnc2c(NC(=O)c3c(Cl)cccc3Cl)cccc12
101 | CC(C)NC(=O)NC[C@H](C)NC(=O)OC(C)(C)C
53 to 54 | Cc1cncc(CC(=O)c2ccccc2)c1
228 to 230 | O=C(NC1CCCCC1)NS(=O)(=O)c1ccc(CCn2cnc3ccccc3c2=O)cc1
230 | Cc1cccc(NC(=O)c2cc(=O)[nH]c3ccc(C(=O)c4ccc(Cl)cc4)cc23)c1

melting point [°C] | SMILES
107 to 109 | CSc1nn2c(N3CCN(C)CC3)ccnc2c1S(=O)(=O)c1ccccc1
167 to 169 | COc1cc(OC)cc(N2CCN(C(=S)Nc3cc(C(C)=O)c(C)nc3OC)CC2)c1
119 to 120 | NCCCNC(=O)Cn1ncc(-c2ccccc2)c1-c1ccccc1
134 to 137 | N#Cc1ccc(C(CC(=O)O)N2C(=O)c3ccccc3C2=O)cc1 (configuration not stated)
159 to 160 | Cc1ccc(N(C)S(=O)(=O)c2cccs2)c2[nH]c(-c3nccs3)cc12
96 to 98 | CCc1cccc(C2=NC(C)(C)CO2)c1C
99 to 100 | COCCOC(=O)C1=C(C)NC(C)=C(C(=O)OC(C)C)C1c1ccccc1F (configuration not stated)
126 to 127 | CC(C)NCC(O)COc1ccc2c(c1)C1CCC2c2ccccc21 (configuration not stated)
110 | COc1cccc(NC(=O)O[C@@H]2CN=C(c3ccccc3)O[C@H]2c2ccccc2)c1 (racemic)
96 | CC(C)(C)OC(=O)N(CCCCCCN1C(=O)c2ccccc2C1=O)CCN(CCCCCCN1C(=O)c2ccccc2C1=O)C(=O)OC(C)(C)C
194 to 195 | O=C(O)c1cccc2cc(Oc3cc(Cl)ncn3)ccc12
218 to 220 | O=C1CC(c2cccc(-n3ccnn3)c2)=Nc2ccc(-c3ccc(F)cc3)cc2N1
68 | OCCc1ccc(OCCN2CCCCC2)cc1
82 | CC(C)(C)OC(=O)N1CCC(Nc2cccc(NC(=O)c3ccc(F)cc3Cl)n2)CC1
143 | COc1ccc(S(=O)(=O)C2(C(=O)NO)CCN(CCCc3ccccc3)CC2)cc1
119 to 121 | Cc1nn(Cc2ccccc2)c(C)c1CC(=O)O
178 to 180 | O=C(Nc1cscn1)Nc1cccc2c1C1CCCCN1C2=O (configuration not stated)
119 to 120 | CN(c1ccc(Cl)cc1)S(=O)(=O)c1cccc(C(=O)Nc2ccc(Cl)cc2F)c1
223 to 224 | CCOC(=O)c1cnc2c(OCC)csc2c1O
276 to 280 | Cc1cccc(NC(=O)C2=C(O)c3ccccc3S(=O)(=O)N2C)c(=O)c1
166 to 167 | CC(=O)c1cc(C)c(OCC(=O)O)c(C)c1
255 to 256 | Nc1nc(NS(=O)(=O)c2ccccc2[N+](=O)[O-])n[nH]1
126 to 128 | CCc1cccc(C)c1CNc1nc(Br)cc(N)c1[N+](=O)[O-]

melting point [°C] | SMILES
180 to 182 | CC(C)C(=O)N(C)C1CN(C(=O)Nc2ccc(C(F)(F)F)cc2)N=C1c1ccc(Cl)cc1 (configuration not stated)
81 to 82 | CS(=O)(=O)NCCN1CCC(CO)CC1
266 to 267 | CC(C)(c1ccc(C(=O)Nc2cn3cc(Cl)ccc3n2)cc1)c1nnn[nH]1
125 to 139 | CC(Oc1ccc2nc(NC(=O)NCCN3CCN(Cc4ccccc4)CC3)sc2c1)c1c(Cl)ccc(F)c1Cl (configuration not stated)
110 to 115 | CCCc1ccc2c(c1)C(=O)N(c1ccc(C(C)C(=O)OC(C)(C)C)cc1)C2 (configuration not stated)
120 | CCOc1ccccc1OCC(O)CNCCNc1cnn(C)c(=O)c1Cl (configuration not stated)
73 | CC(=O)OCCCc1c(C)[nH]c(C(=O)OC(C)(C)C)c1C
177 to 178 | CCOC(=O)Cc1ccc(NC(=O)/C=C/c2cnn(C)c2-c2ccc(F)cc2)cc1
258 | CCNn1cc(C(=O)O)c(=O)c2cc(F)c(Cl)cc21
224 to 226 | Cc1cccc2c1C(=O)NS2(=O)=O
105 to 110 | CC(=O)Nc1cc2c(cc1Cl)CCN(C)C[C@@H]2c1ccccc1
121 to 123 | C#CCNc1ccc([N+](=O)[O-])cc1C
164 to 166 | COc1ccc2c(OC(C)C)c(C(N)=O)sc2c1
47 to 48 | Fc1ccc(C(F)(F)C(F)(F)c2ccccc2)c(Br)c1
199 to 200 | CSc1c(C(Cc2ccccc2)C(=O)O)cc(C)c2c3ccccc3n(Cc3ccccc3)c12 (configuration not stated)
127 to 129 | CC(Cc1cc(F)cc2c(Cl)coc12)NC(=O)OC(C)(C)C (configuration not stated)
92 to 94 | Cc1c(NC(=O)c2ccc(OC[C@@H]3CCCO3)cc2)ccc2cc(CNCC3CCOCC3)cnc12
228 | CNC(=S)C1(c2cccnc2)CCCCS1=O (configuration not stated)
102 to 103 | CC(C)(CO)CCCCCCCCCCCC(O)(CC(=O)O)CC(=O)O
65 to 67 | CS(=O)(=O)Nc1ccc(/C=C\COCCCCCCO)cc1
113 to 115 | COCCOCCOc1ccc2c(c1)S(=O)(=O)N(CCl)C2=O
182 to 183 | Cc1c(C)c(N2CCN(c3ccc(C(F)(F)F)cc3)CC2)c(C)c2c1OC(C)(C)C2N1CCCCC1 (configuration not stated)
242 to 246 | CN1C(=O)C(c2ccccc2)=C(c2cn(C)c3ccccc23)C1=O

SMILES | melting point [°C]
Fc1ccc(-c2csc(-c3cn([C@H]4CN5CCC4CC5)nn3)c2)cn1 | 136
O=Cc1nnc2n1-c1ccc(Cl)cc1C(c1ccccc1)=NC2 | 133 to 135
CCOC(=O)CN1C(=O)C(NC(=O)Cc2ccc(Cl)cc2)N=C(c2ccccc2)c2ccccc21 (configuration not stated) | 205 to 207
